According to US10391201B2, “Gene therapy” (Ospedale San Raffaele S.r.l., priority 2014, dated 2019):

Tests used:
CB-derived CD34+ cells = assay: LV replication intermediates (late-RT, 2LTR circles, integrated copies) in CB-derived CD34+ cells; assay type: cell-based, human
Experimental: (§1) CsA and rapamycin act on distinct steps on the LV life cycle. […] The LV genome fate was tracked by measuring late-RT product (A) and 2LTR circles (B) 24 hours after transduction and integrated proviral copies 2 weeks after transduction (C). Data represent the mean±SEM of four independent experiments expressed as fold versus DMSO WT (A,B) or as absolute copies/cell (C). D. IDLV transduction efficiency was measured 3 days after transduction by FACS and by measuring the retrotranscribed LV DNA products by PCR. Data are the mean±SEM of three independent experiments. P values are for one-way with Bonferonni's multiple comparison. *P<0.05, **P<0.01, ****P<0.0001.
as §1, with “FACS (left panel)” for “FACS”, “PCR (right panel).” for “PCR.”, “P values are for one-way with Bonferonni's multiple comparison. *P<0.05, **P<0.01, ****P<0.0001.” left out
To analyse viral replication intermediates, transduced cells were washed and resuspended in Monini lysis buffer (0.1% polyoxyethylene 10 lauryl ether (Sigma), 0.1 mg/mL proteinase K (Promega)) (25 μL per 1×10^5 cells), incubated at 65° C. for 2 h and heat inactivated at 94° C. for 15 min (Monini, P. et al. (1999) Blood 93: 4044-58). […] Late-RT and 2LTR circles were measured by semi-quantitative Taqman assay with primers described below and normalised using the human TERT gene. Results are expressed as fold versus the DMSO control, as described above.
DNA from cell cultures was extracted using a Maxwell 16 instrument (Promega) or Blood & Cell Culture DNA Micro Kit (Qiagen). […] Vector copy numbers and replication intermediates were normalised to genomic DNA content, which was assessed using the human TERT gene. […]

[1] = system: Human cord blood-derived CD34+ cells transplanted in NSG mice; assay: Transplantation of transduced human HSPC in NSG mice; assay type: in vivo, NOD-SCID-IL2Rg−/− (NSG) mice
Experimental: NOD-SCID-IL2Rg−/− (NSG) mice were purchased from Jackson laboratory. All animal procedures were performed according to protocols approved by the Animal Care and Use Committee of the Ospedale San Raffaele (IACUC 661) and communicated to the Ministry of Health and local authorities according to Italian law. […] After transduction, 1.3×10^5 cells were infused into the tail vein of sublethally irradiated 10-week-old NSG mice (radiation dose: 200 cGy for mice weighing 18-25 g and 220 cGy for mice above 25 g of weight). Transduced and untransduced cells were also cultured in vitro for 14 days for further analysis. In vitro cultured cells and BM cells isolated from transplanted mice at the time of sacrifice were then used to quantify the VCN by qPCR.
For each mouse, 250 μL of peripheral blood were added to 15 μL of PBS containing 45 mg/mL EDTA. For immunostaining, a known volume of whole blood (100 μL) was first incubated with anti-human FcγIII/II receptor (Cd16/Cd32) blocking antibodies for 15 min at 4° C. and then incubated in the presence of monoclonal antibodies (for antibodies, see Table 1) for 20 min at 4° C. Erythrocytes were removed by lysis with the TQ-Prep workstation (Beckman-Coulter) in the presence of an equal volume of FBS (100 μL) to protect white blood cells.
BM cells were obtained by flushing the femurs in PBS 2% FBS solution. Cells (1×10^6 cells) were washed, resuspended in 100 μL of PBS containing 2% FBS, and incubated with anti-human receptor (Cd16/Cd32) blocking antibodies for 15 min at 4° C. Staining was then performed with monoclonal antibodies (for antibodies, see Table 1) for 20 min at 4° C. Cells were washed and finally resuspended in PBS containing 2% FBS.
Spleens were first smashed and the resulting cell suspension was passed through 40 μm nylon filter and washed in cold phosphate buffered saline (PBS) containing 2 mM EDTA and 0.5% bovine serum albumin (BSA). Cells were incubated with anti-human receptor (Cd16/Cd32) blocking antibodies for 15 min at 4° C. and then stained with anti-human monoclonal antibodies (for antibodies, see Table 1) for 20 min at 4° C. Cells were finally washed and resuspended in PBS containing 2% FBS.

CO[C@H]1C[C@@H]2CC[C@@H](C)[C@@](O)(O2)C(=O)C(=O)N2CCCC[C@H]2C(=O)O[C@H]([C@H](C)C[C@@H]2CC[C@@H](O)[C@H](OC)C2)CC(=O)[C@H](C)/C=C(\C)[C@@H](O)[C@@H](OC)C(=O)[C@H](C)C[C@H](C)/C=C/C=C/C=C/1C [rapamycin, Rapamycin]
2-long-terminal-repeat (2LTR) circles vs DMSO (CB-derived CD34+ cells; 10 μg/ml rapamycin, 24 hours after transduction): consequent increase | late-RT products vs DMSO, independently of the CA (CB-derived CD34+ cells; WT, A88T or A92E LV, 10 μg/ml rapamycin, 24 hours after transduction): two to threefold increase | integrated vector (proviral) copies vs DMSO (CB-derived CD34+ cells; all vectors, 2 weeks after transduction): increase | overall percentage of GFP+ cells in the spleen ([1]; 20 weeks post-transplant (FIG. 22H), DMSO 49.0±5): 80.8±1% | GFP+/hCD45+ cells in peripheral blood ([1]; NSG mice, 11 weeks after transplant (FIG. 22C), DMSO 48±6): 78±2% | VCN in the BM cells ([1]; NSG mice, 20 weeks post-transplant, DMSO 0.9±0.2): 3.6±0.4 | levels of engraftment in the BM with respect to controls (in words) ([1]; NSG mice, 20 weeks post-transplant, p<0.047 v. DMSO): modest but statistically significant increase
